Assay results as given in patent US11345711B2, “8,9-dihydroimidazo[1,2-a]pyrimido[5,4-e]pyrimidin-5(6H)-ones” (IMPACT THERAPEUTICS (SHANGHAI), INC, priority 2016, dated 2022).
Like-named read-outs stand apart in the source and are kept apart here.

How the values were obtained:
advanced solid tumors = settings: cited from earlier work
Wee1 (h) = Wee1 (h) (Homo sapiens, UniProt P30291); assay: Wee1 kinase (h) detection method, [γ-33P]-ATP filter assay; assay type: biochemical
NCI-H1299 cells = assay: MTT based cell viability assay on NCI-H1299 cells; settings: Homo sapiens, read-out: IC50, growth inhibition of NCI-H1299 cells
Summary of the method: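 Viability read-out was MTT reduction (0.5 mg/mL, 4 h, absorbance 552/630/690 nm) after 3-day compound exposure at 37 °C of NCI-H1299 cells seeded at 1000 per well. Dilutions spanned 10 μM–0.01 μM in DMSO, final DMSO 1‰. Survival-versus-concentration curves were fitted sigmoidally to give IC50.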

LoVo cells = assay: MTT based cell viability assay on LoVo cells; settings: Homo sapiens, LoVo, 72 h, 3 d, read-out: IC50, growth inhibition of LoVo cells
Summary of the method: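 Inhibition of LoVo proliferation was derived as IC50 from a sigmoidal dose-response fit of cell survival. Readout was MTT (0.5 mg/mL, 4 h) with absorbance at 552/630/690 nm, after 3-day treatment at 37 °C. Eight-point series from 10 μM to 0.01 μM, DMSO control, 1% DMSO final.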

[1] = AZD1775 alone or in combination with gemcitabine, cisplatin or carboplatin, 176 evaluable patients

Wee1 (h), sequence (P30291 whole entry): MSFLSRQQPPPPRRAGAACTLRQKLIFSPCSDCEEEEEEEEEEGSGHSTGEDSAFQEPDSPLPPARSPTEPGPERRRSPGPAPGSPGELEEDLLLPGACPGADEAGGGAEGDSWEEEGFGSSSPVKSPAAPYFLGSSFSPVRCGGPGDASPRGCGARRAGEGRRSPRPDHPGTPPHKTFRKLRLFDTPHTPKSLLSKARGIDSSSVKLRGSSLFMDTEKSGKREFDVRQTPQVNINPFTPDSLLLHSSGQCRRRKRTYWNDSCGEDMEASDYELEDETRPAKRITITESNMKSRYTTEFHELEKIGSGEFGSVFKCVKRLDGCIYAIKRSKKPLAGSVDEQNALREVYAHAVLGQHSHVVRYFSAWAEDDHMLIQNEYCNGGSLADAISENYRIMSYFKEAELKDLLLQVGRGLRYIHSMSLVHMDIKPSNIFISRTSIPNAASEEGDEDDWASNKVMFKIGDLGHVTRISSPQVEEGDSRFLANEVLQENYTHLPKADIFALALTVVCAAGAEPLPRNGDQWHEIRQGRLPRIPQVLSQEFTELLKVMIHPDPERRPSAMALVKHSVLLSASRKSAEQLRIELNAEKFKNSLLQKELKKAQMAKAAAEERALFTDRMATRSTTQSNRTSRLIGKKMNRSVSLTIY

Structure (SMILES) | IC50 (NCI-H1299 cells; NCI-H1299, NCI-H1299 cells) [nM] | IC50 (LoVo cells) [nM] | Inh. (%) of Wee1 kinase enzyme activity (Wee1 (h); C 0.01 μm compound) [%] | Inh. (%) of Wee1 kinase enzyme activity (Wee1 (h); C 0.1 μm compound) [%] | Inh. (%) of Wee1 kinase enzyme activity (Wee1 (h); C 1 μm compound) [%] | IC50 (NCI-H1299 cells; NCI-H1299 cells) [nM] | also measured
C=CCn1c(=O)c2cnc(Nc3ccc(N4CCN(C)CC4)cc3)nc2n1-c1cccc(C(C)(C)O)n1 [AZD1775] | 287 | 389 |  |  |  |  | partial response (advanced solid tumors; [1]): 10%; stable disease as the best response (advanced solid tumors; [1]): 53%; response rate (advanced solid tumors; TP53 wild-type patients (n=33)): 12%; safety and tolerability (advanced solid tumors; alone or in combination with chemotherapy, at a certain dose): safe and tolerable; response rate (advanced solid tumors; patients with TP53 mutation (n=19)): 21%; Inh. (%) of Wee1 kinase enzyme activity (Wee1 (h); C 10 μm compound): 97%
Cc1cc(Nc2ncc3c(n2)N2CCN=C2N(c2c(Cl)cccc2Br)C3=O)cc(Cl)c1N1CCN(C)CC1 [Example 166, 6-(2-Bromo-6-chlorophenyl)-2-((3-chloro-5-methyl-4-(4-methylpiperazin-1-yl)phenyl)amino)-8,9-dihydroimidazo[1,2-a]pyrimido[5,4-e]pyrimidin-5(6H)-one] | 99.3 | 55.5 | 28 | 86 | 98 |  | 
Cc1cc(Nc2ncc3c(n2)N2CCN=C2N(c2c(Cl)cccc2Br)C3=O)cc(Br)c1N1CCN(C)CC1 [Example 167, 6-(2-Bromo-6-chlorophenyl)-2-((3-bromo-5-methyl-4-(4-methylpiperazin-1-yl)phenyl)amino)-8,9-dihydroimidazo[1,2-a]pyrimido[5,4-e]pyrimidin-5(6H)-one] | 107 | 62.7 | 21 | 82 | 98 |  | 
Cc1cccc(F)c1N1C(=O)c2cnc(Nc3ccc(N4CCN(C)CC4)c(Cl)c3)nc2N2CCN=C21 [Example 168, 6-(2-Fluoro-6-methylphenyl)-2-((3-chloro-4-(4-methylpiperazin-1-yl)phenyl)amino)-8,9-dihydroimidazo[1,2-a]pyrimido[5,4-e]pyrimidin-5(6H)-one] |  | 296 |  |  | 89 | 599 | 
Cc1cc(Nc2ncc3c(n2)N2CCN=C2N(c2c(C)cccc2F)C3=O)cc(C)c1N1CCN(C)CC1 [Example 169, 6-(2-Fluoro-6-methylphenyl)-2-((3,5-dimethyl-4-(4-methylpiperazin-1-yl)phenyl)amino)-8,9-dihydroimidazo[1,2-a]pyrimido[5,4-e]pyrimidin-5(6H)-one] | 274 | 165 | 16 | 73 | 93 |  | 
Cc1cccc(Cl)c1N1C(=O)c2cnc(Nc3ccc(N4CCN(C)CC4)c(Cl)c3)nc2N2CCN=C21 [Example 171, 6-(2-Chloro-6-methylphenyl)-2-((3-chloro-4-(4-methylpiperazin-1-yl)phenyl)amino)-8,9-dihydroimidazo[1,2-a]pyrimido[5,4-e]pyrimidin-5(6H)-one] | 442 | 228 | 16 | 59 | 95 |  | 
Cc1cccc(Cl)c1N1C(=O)c2cnc(Nc3cc(Cl)c(N4CCN(C)CC4)c(Cl)c3)nc2N2CCN=C21 [Example 172, 6-(2-Chloro-6-methylphenyl)-2-((3,5-dichloro-4-(4-methylpiperazin-1-yl)phenyl)amino)-8,9-dihydroimidazo[1,2-a]pyrimido[5,4-e]pyrimidin-5(6H)-one] | 362 | 117 | 12 | 60 | 91 |  | 
Cc1cc(Nc2ncc3c(n2)N2CCN=C2N(c2c(C)cccc2Cl)C3=O)cc(Cl)c1N1CCN(C)CC1 [Example 173, 6-(2-Chloro-6-methylphenyl)-2-((3-chloro-5-methyl-4-(4-methylpiperazin-1-yl)phenyl)amino)-8,9-dihydroimidazo[1,2-a]pyrimido[5,4-e]pyrimidin-5(6H)-one] | 226 | 99.2 | 26 | 71 | 94 |  | 
Cc1cc(Nc2ncc3c(n2)N2CCN=C2N(c2c(C)cccc2Cl)C3=O)cc(C)c1N1CCN(C)CC1 [Example 174, 6-(2-Chloro-6-methylphenyl)-2-((3,5-dimethyl-4-(4-methylpiperazin-1-yl)phenyl)amino)-8,9-dihydroimidazo[1,2-a]pyrimido[5,4-e]pyrimidin-5(6H)-one] | 152 | 136 | 30 | 83 | 94 |  | 
O=C1c2cnc(Nc3ccc(N4CCNCC4)cc3)nc2N2CCN=C2N1c1c(Cl)cccc1Cl [Example 175, 6-(2,6-Dichlorophenyl)-2-((4-(piperazin-1-yl)phenyl)amino)-8,9-dihydroimidazo[1,2-a]pyrimido[5,4-e]pyrimidin-5(6H)-one] |  | 192 |  |  | 95 | 269 | 
O=C1c2cnc(Nc3ccc(N4CCNCC4)c(Cl)c3)nc2N2CCN=C2N1c1c(Cl)cccc1Cl [Example 176, 6-(2,6-Dichlorophenyl)-2-((3-chloro-4-(piperazin-1-yl)phenyl)amino)-8,9-dihydroimidazo[1,2-a]pyrimido[5,4-e]pyrimidin-5(6H)-one] |  | 73.6 |  |  | 96 | 126 | 
COc1cc(Nc2ncc3c(n2)N2CCN=C2N(c2c(Cl)cccc2Cl)C3=O)ccc1N1CCNCC1 [Example 178, 6-(2,6-Dichlorophenyl)-2-((3-methoxy-4-(piperazin-1-yl)phenyl)amino)-8,9-dihydroimidazo[1,2-a]pyrimido[5,4-e]pyrimidin-5(6H)-one] |  | 281 |  |  | 94 | 360 | 
O=C1c2cnc(Nc3ccc(N4CCNCC4)c(CO)c3)nc2N2CCN=C2N1c1c(F)cccc1Cl [Example 179, 6-(2-Chloro-6-fluorophenyl)-2-((3-(hydroxymethyl)-4-(piperazin-1-yl)phenyl)amino)-8,9-dihydroimidazo[1,2-a]pyrimido[5,4-e]pyrimidin-5(6H)-one] |  | 2860 |  |  | 95 | 70600 | 
O=C1c2cnc(Nc3ccc(N4CCNCC4)c(CO)c3)nc2N2CCN=C2N1c1c(Cl)cccc1Cl [Example 180, 6-(2,6-Dichlorophenyl)-2-((3-(hydroxymethyl)-4-(piperazin-1-yl)phenyl)amino)-8,9-dihydroimidazo[1,2-a]pyrimido[5,4-e]pyrimidin-5(6H)-one] |  | 2380 |  |  | 96 | 2050 | 
CN1CCN(c2ccc(Nc3ncc4c(n3)N3CCN=C3N(c3c(Cl)cccc3Cl)C4=O)cc2CO)CC1 [Example 181, 6-(2,6-Dichlorophenyl)-2-((3-(hydroxymethyl)-4-(4-methylpiperazin-1-yl)phenyl)amino)-8,9-dihydroimidazo[1,2-a]pyrimido[5,4-e]pyrimidin-5(6H)-one] |  | 142 |  |  | 96 | 187 | 
O=C1c2cnc(Nc3ccc(N4CCN(CCO)CC4)cc3)nc2N2CCN=C2N1c1c(Cl)cccc1Cl [Example 182, 6-(2,6-Dichlorophenyl)-2-((4-(4-(2-hydroxyethyl)piperazin-1-yl)phenyl)amino)-8,9-dihydroimidazo[1,2-a]pyrimido[5,4-e]pyrimidin-5(6H)-one] |  | 243 |  |  | 94 | 503 | 
O=C1c2cnc(Nc3ccc(N4CCOCC4)cc3)nc2N2CCN=C2N1c1c(Cl)cccc1Cl [Example 183, 6-(2,6-Dichlorophenyl)-2-((4-morpholinophenyl)amino)-8,9-dihydroimidazo[1,2-a]pyrimido[5,4-e]pyrimidin-5(6H)-one] |  | 775 |  |  | 95 | 1040 | 
